Measured values from patent US20070173539A1, “Use of malonomicin and analogs in fungicidal applications” (priority 2006, published 2007).

What was measured:
Assay type in all cases: in vivo
[1] = test system: Puccinia recondita f. sp. tritici (PUCCRT); assay: Brown Rust of Wheat one day protectant (1DP); details: wheat (Monon), sprayed to runoff, rate 200 ppm
Procedure: (§1) Final treatment volumes were obtained by adding 0.1 percent aqueous Ethomeen T25 or 0.1 percent aqueous Spraymate X77+0.1 percent wt./vol. ammonium sulfate^+. Brown Rust of Wheat (Puccinia recondita f. sp. tritici-PUCCRT) (1 DP) Wheat (cultivar Monon) was grown in plastic pots (6.2 cm×8.75 cm) containing 50 percent mineral soil, 50 percent Metro-Mix 360 (W.R Grace and Co.) until the seedlings were 10-20 cm tall. These plants were then sprayed to runoff with the test compound at a rate of 200 ppm. After 24 hours the test plants were inoculated by spraying with an aqueous spore suspension of Puccinia recondita f. sp. tritici (PUCCRT). The plants were then transferred to a dew chamber for 24 hours, then to the greenhouse until disease developed on the untreated control plants.

[2] = test system: Venturia inaequalis (VENTIN); assay: Apple Scab curative (compound added 2 days after inoculation); details: Curative at 200 ppm
[3] = test system: Leptosphaeria nodorum (LEPTNO); assay: Glume Blotch of Wheat one day protectant (1DP); details: wheat (Yuma), sprayed to runoff, rate 200 ppm
Procedure: as §1, with “Glume Blotch” for “Brown Rust”, “(Leptosphaeria nodorum-[…])” for “(Puccinia recondita f. sp. tritici-PUCCRT) (1 DP)”, “Yuma)” for “Monon)”, “Co.).” for “Co.)”, “Leptosphaeria nodorum ([…]).” for “Puccinia recondita f. sp. tritici (PUCCRT).”

[4] = test system: Phytophthora infestans (PHYTIN); details: 1DP, tomato (rutgers), sprayed to runoff, rate 200 ppm

NC[C@@H]1NC(=O)C(C(=O)CC(NC(=O)[C@@H](N)CO)(C(=O)O)C(=O)O)=C1O [Compound I, {[(2S)-2-amino-3-hydroxypropanoyl]amino}{2-[(5S)-5-(aminomethyl)-4-hydroxy-2-oxo-2,5-dihydro-1H-pyrrol-3-yl]-2-oxoethyl}malonic acid]
PUCCRT percent control of plant disease [1]: ++ (++ = 75-100 percent control of plant disease)
VENTIN percent control of plant disease [2]: ++ (++ = 75-100 percent control of plant disease)
LEPTNO percent control of plant disease [3]: + (+ = 30-74 percent control of plant disease)
PHYTIN percent control of plant disease [4]: ++ (++ = 75-100 percent control of plant disease)
